Calls of active or inactive are those of the source. The calls are words filed in the database; no cut-off is given here.
Columns and labels:
[1] = target: T1, Prostaglandin G/H synthase 2 (Mus musculus) (UniProt Q05769); test: Inhibition of COX-2 in mouse RAW264.7 cells assessed as reduction in PGE2 production preincubated for 2 hrs followed by LPS stimulation measured after 24 hrs by enzyme immunoassay; type: cell-based
T1 sequence (whole entry): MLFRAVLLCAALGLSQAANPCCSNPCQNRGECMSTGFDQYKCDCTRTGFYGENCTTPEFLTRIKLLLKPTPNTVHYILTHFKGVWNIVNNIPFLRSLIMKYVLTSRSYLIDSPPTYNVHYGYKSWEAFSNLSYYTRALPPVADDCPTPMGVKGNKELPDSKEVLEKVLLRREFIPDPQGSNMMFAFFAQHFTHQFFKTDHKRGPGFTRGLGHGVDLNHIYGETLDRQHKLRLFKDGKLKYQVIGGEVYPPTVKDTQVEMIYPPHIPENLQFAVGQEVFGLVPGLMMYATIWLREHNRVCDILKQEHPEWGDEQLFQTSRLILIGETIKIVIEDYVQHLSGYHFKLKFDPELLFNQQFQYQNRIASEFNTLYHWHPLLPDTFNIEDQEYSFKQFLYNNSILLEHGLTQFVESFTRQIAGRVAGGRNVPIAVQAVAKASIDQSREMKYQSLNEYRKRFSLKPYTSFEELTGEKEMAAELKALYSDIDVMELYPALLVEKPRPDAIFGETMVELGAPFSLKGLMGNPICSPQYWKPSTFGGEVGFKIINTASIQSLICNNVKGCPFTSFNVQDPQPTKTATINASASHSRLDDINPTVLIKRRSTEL

RAW264.7 [2] = test: Antiinflammatory activity against mouse RAW264.7 cells assessed as inhibition of LPS induced cox-2 expression at 5 to 20 uM preincubated for 2 hrs followed by LPS challenge measured after 24 hrs by Western blot method; type: functional, cell-based
[3] = target: T2, Prostaglandin G/H synthase 1 (Mus musculus, UniProt P22437); test: Inhibition of COX-1 in mouse RAW264.7 cells assessed as reduction in PGE2 production at 10 uM after 24 hrs by enzyme immunoassay; type: cell-based; conditions: raw264.7, 24 h
T2 sequence (P22437 whole entry): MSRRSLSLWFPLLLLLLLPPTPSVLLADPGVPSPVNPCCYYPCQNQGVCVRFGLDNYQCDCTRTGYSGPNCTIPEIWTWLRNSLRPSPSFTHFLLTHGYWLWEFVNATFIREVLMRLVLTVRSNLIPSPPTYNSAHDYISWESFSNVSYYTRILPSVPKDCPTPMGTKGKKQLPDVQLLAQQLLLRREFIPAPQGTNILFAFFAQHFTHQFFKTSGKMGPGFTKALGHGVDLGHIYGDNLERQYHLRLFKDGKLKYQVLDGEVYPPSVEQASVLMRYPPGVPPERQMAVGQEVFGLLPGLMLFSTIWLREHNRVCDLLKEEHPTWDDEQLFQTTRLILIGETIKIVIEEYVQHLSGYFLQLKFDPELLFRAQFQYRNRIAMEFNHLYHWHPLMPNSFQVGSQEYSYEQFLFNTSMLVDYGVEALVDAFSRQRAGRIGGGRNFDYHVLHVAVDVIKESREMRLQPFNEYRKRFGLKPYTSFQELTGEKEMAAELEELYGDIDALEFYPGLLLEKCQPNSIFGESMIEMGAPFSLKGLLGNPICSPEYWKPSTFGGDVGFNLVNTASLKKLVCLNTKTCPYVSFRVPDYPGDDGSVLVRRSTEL

RAW264.7 [4] = test: Down regulation of COX-1 expression in mouse RAW264.7 cells at 10 uM after 24 hrs by Western blot method; type: ADME, cell-based; conditions: raw264.7, 24 h

## COc1ccc(C2CC(C)(OC)Oc3c2c(=O)oc2ccccc32)cc1 (single isomer, unassigned)
[1]
  inhibition: Dose-dependent effect
RAW264.7 [2]
  inhibition: inactive
[3]
  inhibition (INH): Not Active
RAW264.7 [4]
  Activity: Non-Toxic

From ChEMBL document CHEMBL4145523, “New selective cyclooxygenase-2 inhibitors from cyclocoumarol: Synthesis, characterization, biological evaluation and molecular modeling” (Eur J Med Chem, 2018)
